Literature values as cited in patent publication US20240050486A1, “METHODS OF GENERATING CORTICAL EXCITATORY NEURONS” (Memorial Sloan-Kettering Cancer Center, priority 2021, published 2024).
pIC50: −log10 of the molar value.

How the values were obtained:
WNT pathway (Porcupine) = settings: at the level of the pathway activator Porcupine; read-out: IC50 WNT pathway inhibition

| Compound | pIC50 (WNT pathway (Porcupine)) | degradation of β-catenin (SW480 cells) | protein levels of the axin-GSK3β complex (SW480 cells) |
| --- | --- | --- | --- |
| Cc1ccc2nc(NC(=O)CSc3nc4c(c(=O)n3-c3ccccc3)SCC4)sc2c1 [IWP-2, N-(6-methyl-1,3-benzothiazol-2-yl)-2-[(4-oxo-3-phenyl-6,7-dihydrothieno[3,2-d]pyrimidin-2-yl)thio]acetamide] | 7.57 | – | – |
| Oc1nc(-c2ccc(C(F)(F)F)cc2)nc2c1CSCC2 [XAV939] | – | promotes the degradation of β-catenin | increases the protein levels of the axin-GSK3β complex |
